Where two headings read alike, the source gives them in different places.
Experiments:
[1] = tested on: Citrus Canker (Xanthomonas citri pv. Citri); experiment: Field trial, citrus canker (Ex. 117); conditions: for % Increase in yield over control / Yield (t/ha): citrus; for Citrus Canker severity, Pre spray: pre spray (baseline)
[2] = tested on: Pomegranate Bacterial Leaf Blight (BLB-Xanthomonas axonopodis pv Punicae); experiment: Field trial, pomegranate bacterial leaf blight (Ex. 99); conditions: for % Increase in yield over control / Yield: pomegranate
[3] = tested on: Cotton Bacterial Leaf Blight (BLB-Xanthomonas citri pv. Malvacearum); experiment: Field trial, cotton bacterial leaf blight, Embodiment 12 (Ex. 116); conditions: for % Increase over control: cotton yield; for % Disease reduction over Control / Yield: cotton
[4] = tested on: Alternaria alternata; experiment: Alternaria leaf spot/blight on inoculated tomato plants (Ex. 28); format: in vivo; conditions: in vivo
[5] = tested on: Aphid; conditions: in vivo
[6] = tested on: tomato seedlings; experiment: Response of tomato plants, greenhouse growth (Ex. 30); format: in vivo; conditions: tomato seedlings, dose 1 ml/gm/lit
[7] = cited from earlier work
[8] = tested on: Spodoptera litura; experiment: whole plant or invertebrate; conditions: 72 h
[9] = tested on: chili seedlings; experiment: Response of chili plants, greenhouse growth (Ex. 31); format: in vivo; conditions: chili seedlings, dose 1 ml/gm/lit
[10] = tested on: Thrips; conditions: in vivo
[11] = tested on: Spodoptera litura; conditions: in vivo
[12] = tested on: Helicoverpa armigera; conditions: in vivo
[13] = tested on: Thrips; experiment: whole plant or invertebrate; conditions: in Gossypium hirsutum, 48 h
[14] = tested on: Alternaria alternata; experiment: In vitro poisoned food technique against fungus (Ex. 20); format: cell-based
[15] = tested on: Spodoptera litura; conditions: in vivo; remark: listed apart in the source
[16] = tested on: Aphid; experiment: whole plant or invertebrate; conditions: 48 h
[17] = Table 13, descriptive, no test described
[18] = read-out: % Corrected Mortality at 48 Hrs.
[19] = read-out: % Mortality at 48 Hrs.

Compound: O=[N+]([O-])C(Br)(CO)CO [Bronopol]
- % Disease reduction over Control ([1]; dose 500 ppm): 72.62%
- Citrus Canker severity, 1st spray 5rd Day ([1]; dose 500 ppm): 38.48
- Citrus Canker severity, 1st spray 10th day ([1]; dose 500 ppm): 33.15
- Citrus Canker severity, 2nd spray 5rd day ([1]; dose 500 ppm): 27.45
- Citrus Canker severity, 2nd spray 10th Day ([1]; dose 500 ppm): 22.45
- % Increase in yield over control ([1]; dose 500 ppm): 3.61%
- Yield (t/ha) ([1]; dose 500 ppm): 8.30 t/ha
- Citrus Canker severity, Pre spray ([1]; dose 500 ppm): 41.75
- % Disease reduction over Control ([2]; dose 500 ppm): 66.68%
- BLB severity 1st spray 3rd Day ([2]; dose 500 ppm): 36.68
- BLB severity 1st spray 5th day ([2]; dose 500 ppm): 32.15
- BLB severity 2nd spray 3rd Day ([2]; dose 500 ppm): 28.75
- BLB severity 2nd spray 5th Day ([2]; dose 500 ppm): 26.65
- % Increase in yield over control ([2]; dose 500 ppm): 10.36%
- Yield ([2]; dose 500 ppm): 10.55 t/ha
- cotton BLB severity ([3]; 1st spray, 5th Day, dose 500 ppm): 31.33
- cotton BLB severity ([3]; 1st spray, 10th Day, dose 500 ppm): 27.10
- cotton BLB severity ([3]; 2nd spray, 5th Day, dose 500 ppm): 25.60
- cotton BLB severity ([3]; 2nd spray, 10th Day, dose 500 ppm): 23.60
- % Increase over control ([3]; dose 500 ppm): 13.79%
- % Disease reduction over Control ([3]; dose 500 ppm): 66.38%
- Yield ([3]; dose 500 ppm): 20.30 qtl/ha

Compound: COc1cc(CNC(=O)CCCC/C=C/C(C)C)ccc1O [Capsaicin]
- % Disease reduction over Control [4]: 51.24%
- % Corrected Mortality at 48 Hrs. [5]: 57.14%
- Plant Height 5th Day ([6]; 5th day after application): 7.11 cm
- Stem Girth 5th Day ([6]; 5th day after application): 1.92 mm
- Plant Height 10th Day ([6]; 10th day after application): 7.86 cm
- Stem Girth 10th Day ([6]; 10th day after application): 2.01 mm
- Plant Height % Increase over pre on 10th Day ([6]; 10th day): 29.28%
- Stem Girth % Increase over pre on 10th Day ([6]; 10th day): 58.60%
- CCI 5th Day ([6]; 5th day after application): 14.66
- CCI % Increase over pre on 10th Day ([6]; 10th day): 21.99%
- Root Length (cm) 10th Day ([6]; 10th day): 3.95 cm
- CCI 10th Day ([6]; 10th day after application): 15.42
- Root Length % Increase over control ([6]; 10th day, vs water control): 18.74%
- Acaricidal Activity - Mode of action [7, 17]: Acts as a mite feeding
- Antifungal Activity - Mode of action [7, 17]: Inhibits the hyphae
- Antioxidant Activity - Mode of action [7, 17]: Showed antioxidant
- Bactericidal Activity - Mode of action [7, 17]: Inhibition of bacterial
- Insecticidal Activities - Mode of action [7, 17]: Fumigant and larvicidal
- Virucidal Activity - Mode of action [7, 17]: Inhibited viral replication
- Phytotonic Effect ([7]; Table 13, effect on plants, descriptive): Increase
- mortality at 1 mL or g/L ([8]; read-out: % Corrected Mortality at 72 Hrs.): 39.5%
- mortality at 1 mL or g/L ([8]; read-out: % Mortality at 72 Hrs.): 42.5%
- CCI 5th Day ([9]; 5th day after application): 12.21
- Plant Height (cm) 5th Day ([9]; 5th day after application): 6.30 cm
- CCI % Increase over pre on 10th Day ([9]; 10th day): 46.96%
- Plant Height % Increase over pre on 10th Day ([9]; 10th day): 43.26%
- Root Lenght (cm) 10th Day ([9]; 10th day): 2.99 cm
- Stem Girth % Increase over pre on 10th Day ([9]; 10th day): 43.31%
- CCI 10th Day ([9]; 10th day after application): 13.52
- Plant Height (cm) 10th Day ([9]; 10th day after application): 6.59 cm
- Root Lenght % Increase over control ([9]; 10th day, vs water control): 9.09%
- % Corrected Mortality at 48 Hrs. [10]: 55.56%
- % Mortality at 48 Hrs. [10]: 60.00%
- Total No. of dead insect at 72 Hrs. [11]: 4.25
- Total No. of dead insect at 72 Hrs. [12]: 4.50
- mortality at 1 mL or g/L [13, 18]: 57.1%
- mortality at 1 mL or g/L [13, 19]: 62.5%
- inhibition of growth at 1 mL or g/L ([14]; […]): 42.6%
- Mean colony Diameter (mm) ([14]; poisoned food technique, PDA medium, dose 1 ml/gm/lit., after seven days): 50.50 mm
- % Corrected Mortality at 72 Hrs. [15]: 44.74%
- % Mortality at 72 Hrs. [15]: 47.50%
- mortality at 1 mL or g/L [16, 18]: 55.9%
- mortality at 1 mL or g/L [16, 19]: 62.5%

Compound: [Cu+2].[OH-].[OH-] [Copper Hydroxide]
- % Disease reduction over Control ([1]; dose 0.30%): 70.60%
- Citrus Canker severity, 1st spray 5rd Day ([1]; dose 0.30%): 37.65
- Citrus Canker severity, 1st spray 10th day ([1]; dose 0.30%): 33.15
- Citrus Canker severity, 2nd spray 5rd day ([1]; dose 0.30%): 28.10
- Citrus Canker severity, 2nd spray 10th Day ([1]; dose 0.30%): 24.10
- % Increase in yield over control ([1]; dose 0.30%): 13.98%
- Yield (t/ha) ([1]; dose 0.30%): 9.30 t/ha
- Citrus Canker severity, Pre spray ([1]; dose 0.30%): 41.45
- % Disease reduction over Control ([2]; dose 0.30%): 61.56%
- BLB severity 1st spray 3rd Day ([2]; dose 0.30%): 35.45
- BLB severity 1st spray 5th day ([2]; dose 0.30%): 33.15
- BLB severity 2nd spray 3rd Day ([2]; dose 0.30%): 31.2
- BLB severity 2nd spray 5th Day ([2]; dose 0.30%): 30.75
- % Increase in yield over control ([2]; dose 0.30%): 16.42%
- Yield ([2]; dose 0.30%): 11.13 t/ha
- cotton BLB severity ([3]; 1st spray, 5th Day, dose 0.30%): 31.00
- cotton BLB severity ([3]; 1st spray, 10th Day, dose 0.30%): 29.75
- cotton BLB severity ([3]; 2nd spray, 5th Day, dose 0.30%): 27.45
- cotton BLB severity ([3]; 2nd spray, 10th Day, dose 0.30%): 26.45
- % Increase over control ([3]; dose 0.30%): 7.89%
- % Disease reduction over Control ([3]; dose 0.30%): 62.32%
- Yield ([3]; dose 0.30%): 19.00 qtl/ha

Compound: [Cl-].[Cu+2].[Cu+2].[OH-].[OH-].[OH-] [Copper oxychloride]
- % Disease reduction over Control ([2]; dose 0.25%): 67.92%
- BLB severity 1st spray 3rd Day ([2]; dose 0.25%): 36.65
- BLB severity 1st spray 5th day ([2]; dose 0.25%): 30.15
- BLB severity 2nd spray 3rd Day ([2]; dose 0.25%): 26.14
- BLB severity 2nd spray 5th Day ([2]; dose 0.25%): 25.66
- % Increase in yield over control ([2]; dose 0.25%): 12.45%
- Yield ([2]; dose 0.25%): 10.75 t/ha
- cotton BLB severity ([3]; 1st spray, 5th Day, dose 0.25%): 30.00
- cotton BLB severity ([3]; 1st spray, 10th Day, dose 0.25%): 28.45
- cotton BLB severity ([3]; 2nd spray, 5th Day, dose 0.25%): 23.65
- cotton BLB severity ([3]; 2nd spray, 10th Day, dose 0.25%): 21.36
- % Increase over control ([3]; dose 0.25%): 5.41%
- % Disease reduction over Control ([3]; dose 0.25%): 69.57%
- Yield ([3]; dose 0.25%): 18.50 qtl/ha

Reference: patent US20250351832A1, “PHYTOCHEMICALS AS BIOPESTICIDES AND BIOSTIMULANTS” (KAY BEE BIO ORGANICS PVT. LTD., priority 2024, published 2025)
